Reference: ChEMBL document CHEMBL1141946, “Inhibitors of phenylethanolamine N-methyltransferase devoid of alpha2-adrenoceptor affinity” (Bioorg Med Chem Lett, 2005)

Each molecule was assayed against T1, Adrenergic receptor alpha-2 (Homo sapiens, UniProt P08913+P18825+P18089) (assay: Displacement of [3H]clonidine from Adrenergic alpha-2 receptor). Conditions: not given.
T1 sequence (P08913 whole entry): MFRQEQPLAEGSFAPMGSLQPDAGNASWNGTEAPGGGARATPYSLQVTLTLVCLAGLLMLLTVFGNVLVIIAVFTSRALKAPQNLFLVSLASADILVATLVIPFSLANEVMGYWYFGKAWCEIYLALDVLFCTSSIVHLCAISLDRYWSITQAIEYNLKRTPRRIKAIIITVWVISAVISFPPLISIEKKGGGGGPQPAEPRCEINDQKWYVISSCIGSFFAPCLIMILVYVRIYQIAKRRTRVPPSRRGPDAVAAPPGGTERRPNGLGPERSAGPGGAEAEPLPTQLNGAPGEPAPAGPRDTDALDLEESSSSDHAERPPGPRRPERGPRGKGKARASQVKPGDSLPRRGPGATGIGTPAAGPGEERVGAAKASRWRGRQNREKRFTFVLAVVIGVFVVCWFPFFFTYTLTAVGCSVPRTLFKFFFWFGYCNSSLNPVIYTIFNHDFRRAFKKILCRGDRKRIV
T1 sequence (P18825 whole entry): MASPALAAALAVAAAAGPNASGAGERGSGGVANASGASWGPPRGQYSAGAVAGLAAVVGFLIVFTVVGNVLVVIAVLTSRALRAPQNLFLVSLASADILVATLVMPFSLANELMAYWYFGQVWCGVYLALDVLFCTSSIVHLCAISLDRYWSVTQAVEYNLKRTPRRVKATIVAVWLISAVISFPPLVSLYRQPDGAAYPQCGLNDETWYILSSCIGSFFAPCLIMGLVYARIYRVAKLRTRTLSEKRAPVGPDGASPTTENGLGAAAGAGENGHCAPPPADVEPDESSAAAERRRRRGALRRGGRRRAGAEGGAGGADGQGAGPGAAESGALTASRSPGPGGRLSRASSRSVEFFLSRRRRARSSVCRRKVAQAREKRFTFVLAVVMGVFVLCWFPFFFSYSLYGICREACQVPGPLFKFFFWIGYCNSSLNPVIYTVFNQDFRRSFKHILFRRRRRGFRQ
T1 sequence (P18089 whole entry): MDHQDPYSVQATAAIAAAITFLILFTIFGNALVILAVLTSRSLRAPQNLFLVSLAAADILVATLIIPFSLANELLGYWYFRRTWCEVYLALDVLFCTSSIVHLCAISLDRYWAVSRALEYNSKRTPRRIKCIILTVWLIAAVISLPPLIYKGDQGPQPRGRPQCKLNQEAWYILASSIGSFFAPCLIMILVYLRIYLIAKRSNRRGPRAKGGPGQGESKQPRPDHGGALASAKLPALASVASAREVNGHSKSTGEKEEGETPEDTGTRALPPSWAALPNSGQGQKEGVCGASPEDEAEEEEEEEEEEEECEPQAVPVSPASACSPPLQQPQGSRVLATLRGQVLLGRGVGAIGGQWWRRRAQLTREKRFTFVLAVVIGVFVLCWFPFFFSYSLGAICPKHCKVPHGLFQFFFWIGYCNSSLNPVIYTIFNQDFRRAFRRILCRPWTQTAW
Type: protein assay

| Compound | Ki [µM] |
| --- | --- |
| CC(C)C1Cc2ccc(Br)cc2CN1 (centres undefined) | 3.9 |
| Ic1ccc2c(c1)CNCC2 | 0.22 |
| Clc1ccc2c(c1Cl)CNCC2 | 0.021 |
| NS(=O)(=O)c1ccc2c(c1)CNC(CO)C2 (centres undefined) | 1400 |
| CC(C)C1Cc2ccc([N+](=O)[O-])cc2CN1 (racemic) | 36 |
| CCNS(=O)(=O)c1ccc2c(c1)CNC(C(F)(F)F)C2 (racemic) | > 1000 |
| CC1Cc2ccc(Br)cc2CN1 (racemic) | 1.1 |
| CCC1Cc2ccc(Br)cc2CN1 (racemic) | 1.2 |
| CCC1Cc2ccc([N+](=O)[O-])cc2CN1 (racemic) | 28 |

The remaining lines, values ahead:

| Ki [µM] | Compound |
| --- | --- |
| 400 | FC(F)(F)C1Cc2ccccc2CN1 (centres undefined) |
| 2900 | N#Cc1ccc2c(c1)CNC(C(F)(F)F)C2 (racemic) |
| 1400 | O=[N+]([O-])c1ccc2c(c1)CNC(C(F)(F)F)C2 (racemic) |
| 3900 | CS(=O)(=O)c1ccc2c(c1)CNC(C(F)(F)F)C2 (racemic) |
| > 1000 | FC(F)(F)C1Cc2ccc(Br)cc2CN1 (racemic) |
| > 1000 | FC(F)(F)C1Cc2ccc(Cl)cc2CN1 (racemic) |
| > 1000 | FC(F)(F)c1ccc2c(c1)CNC(C(F)(F)F)C2 (racemic) |
| > 1000 | NS(=O)(=O)c1ccc2c(c1)CNC(C(F)(F)F)C2 (racemic) |
| > 1000 | FC(F)(F)C1Cc2ccc(I)cc2CN1 (racemic) |

Same assay, conditions: read-out: Ki

| Compound | Ki [µM] |
| --- | --- |
| NS(=O)(=O)c1ccc2c(c1)CNCC2 | 100 |
